# Laboratory results from ChEMBL document CHEMBL1201862, “PubChem BioAssay data set” (2004).
# Where a name gives a salt, the structure may show the parent alone. Activity calls are given as the source filed them.
# Legend:
# [1] = Luminescence Cell-Based Dose Confirmation HTS to Identify Activators of 5'UTR Stem-Loop Driven Alpha-Synuclein mRNA Translation in H4 Neuroglioblastoma Cells. [Related pubchem assays: 1829 (Project Summary), 1814 (Primary HTS)]; format: functional
# [2] = Luminescence Cell-Based Dose Response HTS to Identify Activators of Luciferase Translation or Activity in H4 […] Cells. [Related pubchem assays: 1829 (Project Summary), 1814 (Primary HTS)]; format: functional
# H4 = test: Luminescence Cell-Based Dose Response HTS to Identify Activators of 5'UTR Stem-Loop Driven Prion Protein mRNA Translation in H4 Neuroglioblastoma Cells. [Related pubchem assays: 1829 (Project Summary), 1814 (Primary HTS)]; format: functional; details: Homo sapiens
# [3] = target: T1, Aryl hydrocarbon receptor (Homo sapiens, UniProt P35869); test: Luminescence-based cell-based high throughput dose response assay for activators of the Aryl Hydrocarbon Receptor (AHR). [Related pubchem assays: 2796 (Primary screen (AHR activators in singlicate)), 2845 (Confirmation screen (AHR activators in triplicate)), 434939 (Counterscreen (PXR activators in triplicate)), 2804 (Summary (AHR activators))]; format: ADME
# T1 sequence (P35869 whole entry): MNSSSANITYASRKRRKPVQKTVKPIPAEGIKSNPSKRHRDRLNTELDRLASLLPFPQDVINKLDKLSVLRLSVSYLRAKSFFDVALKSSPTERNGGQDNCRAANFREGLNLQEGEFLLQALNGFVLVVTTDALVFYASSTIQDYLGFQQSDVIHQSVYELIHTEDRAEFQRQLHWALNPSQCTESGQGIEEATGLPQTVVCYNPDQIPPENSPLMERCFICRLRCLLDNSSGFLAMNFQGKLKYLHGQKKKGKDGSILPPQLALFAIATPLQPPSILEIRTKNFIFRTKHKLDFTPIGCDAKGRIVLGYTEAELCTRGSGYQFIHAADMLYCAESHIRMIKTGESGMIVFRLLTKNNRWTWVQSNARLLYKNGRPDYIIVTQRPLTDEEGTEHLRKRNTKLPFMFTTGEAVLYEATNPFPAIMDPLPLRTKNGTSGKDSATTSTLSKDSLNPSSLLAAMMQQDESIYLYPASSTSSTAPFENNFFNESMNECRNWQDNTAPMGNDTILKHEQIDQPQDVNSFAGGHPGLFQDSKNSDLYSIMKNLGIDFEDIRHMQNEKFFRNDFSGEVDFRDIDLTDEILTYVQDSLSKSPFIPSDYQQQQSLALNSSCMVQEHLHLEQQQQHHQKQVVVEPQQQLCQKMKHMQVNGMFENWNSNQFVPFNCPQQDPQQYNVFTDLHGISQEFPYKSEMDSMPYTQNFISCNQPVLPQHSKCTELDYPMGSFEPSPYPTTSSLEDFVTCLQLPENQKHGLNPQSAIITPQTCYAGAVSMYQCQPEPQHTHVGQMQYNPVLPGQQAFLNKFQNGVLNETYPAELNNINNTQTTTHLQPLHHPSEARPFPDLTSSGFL
# [4] = target: T2, Sentrin-specific protease 8 (Homo sapiens, UniProt Q96LD8); format: functional
# T2 sequence (Q96LD8 whole entry): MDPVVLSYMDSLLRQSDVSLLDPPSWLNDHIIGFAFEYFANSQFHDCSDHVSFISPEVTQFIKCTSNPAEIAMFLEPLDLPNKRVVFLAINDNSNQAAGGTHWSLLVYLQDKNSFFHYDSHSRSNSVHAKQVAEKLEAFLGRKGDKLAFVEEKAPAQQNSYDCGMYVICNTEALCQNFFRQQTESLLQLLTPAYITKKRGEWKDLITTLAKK
# [5] = target: T2, Sentrin-specific protease 8; format: functional; remark: listed apart in the source
# [6] = target: T3, Sphingosine 1-phosphate receptor 4 (Homo sapiens, UniProt O95977); test: Fluorescence dose response cell-based high throughput screening assay for antagonists of the Sphingosine 1-Phosphate Receptor 4 (S1P4). [Related pubchem assays: 1524 (Confirmation in triplicates.), 1510 (Primary screen.)]; format: functional
# T3 sequence (O95977 whole entry): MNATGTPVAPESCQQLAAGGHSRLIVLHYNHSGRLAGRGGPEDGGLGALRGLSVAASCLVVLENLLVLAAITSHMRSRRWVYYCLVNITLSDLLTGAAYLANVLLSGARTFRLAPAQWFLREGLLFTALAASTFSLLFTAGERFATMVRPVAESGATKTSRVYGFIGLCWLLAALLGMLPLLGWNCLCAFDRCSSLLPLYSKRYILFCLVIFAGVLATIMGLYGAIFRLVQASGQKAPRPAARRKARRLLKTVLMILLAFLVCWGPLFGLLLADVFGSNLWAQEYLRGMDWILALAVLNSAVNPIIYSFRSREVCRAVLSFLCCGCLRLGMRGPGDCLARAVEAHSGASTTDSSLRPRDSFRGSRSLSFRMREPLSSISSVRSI
# [7] = target: Sphingosine 1-phosphate receptor 1 (Homo sapiens, UniProt P21453); format: functional;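 further: Tango beta-arrestin reporter U2OS cells stimulated with S1P near its EC80; inhibitor potency meaning antagonism of receptor activation by the natural agonist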
# [8] = THP-1 cell cytotoxicity, dose response, cytotoxicity control for non-replicating M. tuberculosis project (AID 489025); format: functional
# [9] = HepG2 cell cytotoxicity, dose response, cytotoxicity control for non-replicating M. tuberculosis project (AID 489018); format: functional; details: Mycobacterium tuberculosis
# [10] = Vero E6 cell cytotoxicity, dose response, cytotoxicity control for non-replicating M. tuberculosis project, secondary assay (AID 492998); format: functional, VeroE6; details: Vero C1008
# cells = format: functional
# [11] = target: T4, Replicative DNA helicase DnaB (Mycobacterium tuberculosis, UniProt P9WMR3); test: DnaB intein splicing inhibitors, dose response, biochemical, cell-free fluorescence (AID 449749); format: functional
# T4 sequence (P9WMR3 whole entry): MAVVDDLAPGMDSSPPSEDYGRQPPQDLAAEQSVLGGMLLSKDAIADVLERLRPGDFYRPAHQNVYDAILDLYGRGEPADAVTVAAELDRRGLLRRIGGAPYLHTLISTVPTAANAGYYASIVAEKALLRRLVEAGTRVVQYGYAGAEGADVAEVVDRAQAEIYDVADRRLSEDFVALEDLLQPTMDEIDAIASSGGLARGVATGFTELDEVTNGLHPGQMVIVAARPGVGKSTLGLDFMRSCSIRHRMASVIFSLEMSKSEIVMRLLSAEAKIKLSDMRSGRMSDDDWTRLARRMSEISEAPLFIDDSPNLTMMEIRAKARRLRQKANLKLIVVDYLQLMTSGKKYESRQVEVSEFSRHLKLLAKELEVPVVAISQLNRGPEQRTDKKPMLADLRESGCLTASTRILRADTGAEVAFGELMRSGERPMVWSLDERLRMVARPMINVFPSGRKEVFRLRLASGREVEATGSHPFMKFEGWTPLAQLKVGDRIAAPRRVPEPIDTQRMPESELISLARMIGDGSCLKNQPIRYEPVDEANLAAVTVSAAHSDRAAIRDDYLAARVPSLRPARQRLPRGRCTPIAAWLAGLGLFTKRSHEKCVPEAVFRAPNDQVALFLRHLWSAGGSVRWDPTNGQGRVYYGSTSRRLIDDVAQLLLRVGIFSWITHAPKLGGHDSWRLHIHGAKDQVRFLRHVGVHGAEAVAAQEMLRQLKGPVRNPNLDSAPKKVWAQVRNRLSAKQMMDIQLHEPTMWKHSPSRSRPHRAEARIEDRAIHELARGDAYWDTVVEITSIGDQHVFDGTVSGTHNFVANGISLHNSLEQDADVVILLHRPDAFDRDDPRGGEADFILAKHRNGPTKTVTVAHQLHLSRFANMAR
# Protein RecA = target: T5, Protein RecA (Mycobacterium tuberculosis, UniProt P9WHJ3); test: Fluorescence Cell-Free Homogeneous Dose Retest to Identify Inhibitors of RecA-Intein Splicing Activity. [Related pubchem assays (depositor defined):AID2097, AID2223, AID489010, AID492950]; format: functional
# T5 sequence (P9WHJ3 whole entry): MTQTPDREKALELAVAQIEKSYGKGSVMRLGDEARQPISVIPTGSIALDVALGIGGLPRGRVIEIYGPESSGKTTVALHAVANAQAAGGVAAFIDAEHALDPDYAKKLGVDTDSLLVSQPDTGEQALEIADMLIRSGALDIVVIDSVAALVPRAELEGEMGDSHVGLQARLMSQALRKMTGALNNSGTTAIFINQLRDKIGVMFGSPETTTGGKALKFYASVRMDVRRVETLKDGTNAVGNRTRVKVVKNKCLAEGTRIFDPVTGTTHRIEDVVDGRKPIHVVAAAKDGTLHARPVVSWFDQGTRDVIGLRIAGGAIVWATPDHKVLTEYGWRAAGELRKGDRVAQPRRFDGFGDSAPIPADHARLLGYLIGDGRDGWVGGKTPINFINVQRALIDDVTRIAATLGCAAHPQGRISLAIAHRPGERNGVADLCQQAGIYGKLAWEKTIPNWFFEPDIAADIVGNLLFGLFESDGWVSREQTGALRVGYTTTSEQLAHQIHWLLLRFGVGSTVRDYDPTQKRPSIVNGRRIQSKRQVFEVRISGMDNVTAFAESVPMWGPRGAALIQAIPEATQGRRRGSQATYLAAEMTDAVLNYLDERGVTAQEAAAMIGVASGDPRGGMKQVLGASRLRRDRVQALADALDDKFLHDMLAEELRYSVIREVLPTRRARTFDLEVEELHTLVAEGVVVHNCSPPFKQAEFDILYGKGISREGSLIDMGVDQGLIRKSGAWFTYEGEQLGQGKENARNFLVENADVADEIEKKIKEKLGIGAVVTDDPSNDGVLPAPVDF
# INS1 = test: beta cell apoptosis inhibitors, cytokine rescue, dose response, luminescence, retest (AID 449756); format: functional, cell-based; details: Rattus norvegicus;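 further: cell death triggered by IL-1 beta plus TNF-alpha plus IFN-gamma mixture; protective hits raise ATP signal compared with cytokine alone wells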
# [12] = Shn3 3'UTR reporter inhibitors, dose response, cell-based, Clone20 osteoblasts, firefly luciferase, cherry-picked (AID 624132); format: functional;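 further: firefly luciferase luminescence from reporter carrying the Shn3 3'UTR in osteoblasts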
# [13] = HepG2 cell cytotoxicity, dose response, cytotoxicity control for Shn3 inhibitor project, CellTiter-Glo, cherry-picked (AID 624134); format: functional, cell-based
# [14] = control 3'UTR Renilla luciferase suppression, dose response, counter-screen for Shn3 inhibitor project, cell-based, Clone20-Shn3RL, cherry-picked (AID 624133); format: functional
# [15] = Fluorescence-based cell-based high throughput dose response assay for inhibitors of the interaction of nucleotide-binding oligomerization domain containing 2 (NOD2) and the receptor-interacting serine-threonine kinase 2 (RIPK2).; format: functional; details: Homo sapiens
# Beta Lactamase = Beta Lactamase (Pseudomonas aeruginosa, UniProt Q932Y6); test: beta-lactamase reporter inhibitor potency, dose response, artefact control for NOD2-RIPK2 interaction inhibitor project, BLA reporter cells, FRET fluorescence (AID 651552); format: functional, cell-based
# HEK293 [16] = test: cells; details: Homo sapiens
# HEK293 [17] = test: cells; details: Homo sapiens; remark: listed apart in the source
# H9c2 = test: cells; format: functional, cell-based; details: Rattus norvegicus, H9c2, Myocardium;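 further: confirmatory concentration-response retest of ultra-high-throughput screening hits for modulation of myocardial damage; cell death induced by hydrogen peroxide oxidative stress; compound pretreatment for 60 min then peroxide exposure for 2 h; potency is for protecting the cells against peroxide damage rather than for killing them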
# [18] = target: Arf-GAP with SH3 domain, ANK repeat and PH domain-containing protein 1 (Homo sapiens, UniProt Q9ULH1); format: functional;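 further: biochemical fluorescence polarization dose–response screen measuring inhibition of ASAP1; ASAP1 GAP domain stimulating GTP hydrolysis by truncated human ARF1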
# Leucine aminopeptidase = target: T6, Leucine aminopeptidase (Plasmodium falciparum 3D7, UniProt Q8IL11); test: P. falciparum M17LAP inhibitors, primary screen, biochemical, fluorogenic H-Leu-NHMec substrate, 1536-well (AID 1619); format: functional
# T6 sequence (Q8IL11 whole entry): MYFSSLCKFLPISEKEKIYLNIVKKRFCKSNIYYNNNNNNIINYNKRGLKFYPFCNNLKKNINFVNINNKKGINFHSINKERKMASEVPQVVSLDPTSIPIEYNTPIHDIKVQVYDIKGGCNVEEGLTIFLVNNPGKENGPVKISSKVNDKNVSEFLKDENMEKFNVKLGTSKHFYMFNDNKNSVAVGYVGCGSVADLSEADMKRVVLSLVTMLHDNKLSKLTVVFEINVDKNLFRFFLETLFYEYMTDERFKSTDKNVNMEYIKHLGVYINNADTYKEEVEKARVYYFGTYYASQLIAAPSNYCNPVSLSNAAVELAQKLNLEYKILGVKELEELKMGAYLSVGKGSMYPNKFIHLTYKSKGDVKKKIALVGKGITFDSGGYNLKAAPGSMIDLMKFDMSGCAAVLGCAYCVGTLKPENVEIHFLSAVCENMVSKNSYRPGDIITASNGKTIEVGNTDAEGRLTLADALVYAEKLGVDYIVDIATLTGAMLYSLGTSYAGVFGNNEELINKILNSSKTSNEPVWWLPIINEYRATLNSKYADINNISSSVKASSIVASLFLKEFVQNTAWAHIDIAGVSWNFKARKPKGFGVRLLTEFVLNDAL
# [19] = Counterscreen for inhibitors of Trypanosoma brucei methionyl tRNA synthetase (MetRS): Luminescence-based cell-based high throughput dose response assay to identify compounds that are cytotoxic to Jurkat human T lymphocyte cells.; format: functional
# Mu-type opioid receptor = Mu-type opioid receptor (Homo sapiens, UniProt P35372); format: functional, cell-based;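 further: U2OS cells with beta-arrestin recruitment to OPRM1 by beta-gal complementation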
# Mu-type opioid receptor, sequence (P35372 whole entry): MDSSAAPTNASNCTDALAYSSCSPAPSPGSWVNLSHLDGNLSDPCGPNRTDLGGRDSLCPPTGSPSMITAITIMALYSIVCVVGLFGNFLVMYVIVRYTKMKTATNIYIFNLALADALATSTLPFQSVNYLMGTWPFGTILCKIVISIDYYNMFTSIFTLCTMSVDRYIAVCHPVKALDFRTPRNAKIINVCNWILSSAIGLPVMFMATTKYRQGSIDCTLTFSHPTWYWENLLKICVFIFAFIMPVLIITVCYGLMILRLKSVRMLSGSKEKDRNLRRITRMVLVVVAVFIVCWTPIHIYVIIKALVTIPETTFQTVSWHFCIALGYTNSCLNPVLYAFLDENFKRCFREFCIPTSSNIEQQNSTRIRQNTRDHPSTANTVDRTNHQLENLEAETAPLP
# Arf-GAP with SH3 domain, ANK repeat and PH domain-containing protein 1, sequence (Q9ULH1 whole entry, the tested form may be a part): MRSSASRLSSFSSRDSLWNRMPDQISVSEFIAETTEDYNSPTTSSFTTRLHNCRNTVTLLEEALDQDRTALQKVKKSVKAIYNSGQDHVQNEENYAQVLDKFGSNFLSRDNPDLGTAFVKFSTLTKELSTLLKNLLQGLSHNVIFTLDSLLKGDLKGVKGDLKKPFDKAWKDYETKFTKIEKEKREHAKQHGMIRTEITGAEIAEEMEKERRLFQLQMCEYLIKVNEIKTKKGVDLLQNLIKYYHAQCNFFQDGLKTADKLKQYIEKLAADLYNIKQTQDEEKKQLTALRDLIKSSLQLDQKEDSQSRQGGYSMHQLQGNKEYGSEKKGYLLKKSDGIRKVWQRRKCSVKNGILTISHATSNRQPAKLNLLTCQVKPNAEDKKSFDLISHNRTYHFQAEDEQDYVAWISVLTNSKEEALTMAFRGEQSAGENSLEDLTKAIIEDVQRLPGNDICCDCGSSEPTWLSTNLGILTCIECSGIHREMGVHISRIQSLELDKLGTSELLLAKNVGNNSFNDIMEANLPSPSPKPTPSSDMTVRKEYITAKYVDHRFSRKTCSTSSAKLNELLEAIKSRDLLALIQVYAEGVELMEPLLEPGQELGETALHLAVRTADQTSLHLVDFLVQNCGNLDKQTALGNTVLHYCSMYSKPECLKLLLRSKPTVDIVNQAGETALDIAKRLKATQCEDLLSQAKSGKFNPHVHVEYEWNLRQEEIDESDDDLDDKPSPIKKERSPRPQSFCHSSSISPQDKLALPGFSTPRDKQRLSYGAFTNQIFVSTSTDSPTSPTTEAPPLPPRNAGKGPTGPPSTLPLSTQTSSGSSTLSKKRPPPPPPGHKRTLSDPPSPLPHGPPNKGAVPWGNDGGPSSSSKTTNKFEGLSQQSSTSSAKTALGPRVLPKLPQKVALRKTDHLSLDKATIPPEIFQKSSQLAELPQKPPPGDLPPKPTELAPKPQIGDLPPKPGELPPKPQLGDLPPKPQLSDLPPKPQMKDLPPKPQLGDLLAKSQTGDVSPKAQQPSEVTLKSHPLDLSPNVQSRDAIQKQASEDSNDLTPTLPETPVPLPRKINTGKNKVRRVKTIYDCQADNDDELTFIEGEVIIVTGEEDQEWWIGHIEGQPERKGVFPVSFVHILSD
# Sphingosine 1-phosphate receptor 1, sequence (P21453 whole entry): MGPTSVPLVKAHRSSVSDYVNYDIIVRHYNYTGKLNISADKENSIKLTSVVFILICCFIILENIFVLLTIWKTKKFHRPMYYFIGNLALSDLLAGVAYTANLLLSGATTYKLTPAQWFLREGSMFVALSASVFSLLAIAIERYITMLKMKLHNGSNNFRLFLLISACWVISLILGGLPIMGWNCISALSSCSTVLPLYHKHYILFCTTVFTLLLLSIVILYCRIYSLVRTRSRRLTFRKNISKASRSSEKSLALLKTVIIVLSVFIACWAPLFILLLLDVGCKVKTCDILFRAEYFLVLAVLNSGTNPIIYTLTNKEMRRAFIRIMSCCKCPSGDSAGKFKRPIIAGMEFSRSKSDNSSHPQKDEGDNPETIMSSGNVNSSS
# Beta Lactamase, sequence (Q932Y6 whole entry): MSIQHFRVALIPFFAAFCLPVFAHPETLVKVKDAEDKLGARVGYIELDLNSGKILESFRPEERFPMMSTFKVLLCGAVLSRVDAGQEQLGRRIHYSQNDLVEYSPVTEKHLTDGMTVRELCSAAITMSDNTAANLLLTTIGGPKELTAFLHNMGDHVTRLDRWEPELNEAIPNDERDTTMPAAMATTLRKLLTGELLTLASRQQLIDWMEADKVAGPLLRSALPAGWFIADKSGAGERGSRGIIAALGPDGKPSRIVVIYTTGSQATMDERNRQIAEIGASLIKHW
compound,measurement,setting,value
O=C1c2ccccc2-c2nc3ccccc3nc21,EC50,[1],307 nM (active)
same,EC50,[2],42.2 µM (active)
same,EC50,H4,> 120 µM (not active)
same,EC50,[3],1.22 µM (active)
same,IC50,[4],8.84 µM (active)
same,IC50,[5],5.17 µM (active)
CC1=NNC(=O)/C1=C\c1cn(-c2ccccc2)nc1-c1ccccc1,IC50,[6],2 µM (active)
same,IC50,[7],6.83 µM (active)
same,CC50,[8],6.16 µM (active)
same,CC50,[9],13 µM (active)
same,CC50,[10],10.1 µM (active)
same,IC50,cells,20.6 µM (active)
same,AC50,[11],1.92 µM (active)
same,EC50,Protein RecA,978 nM (active)
same,AC50,INS1,7.76 µM (active)
same,AC50,[12],8.42 µM (active)
same,AC50,[13],8.9 µM (active)
same,AC50,[14],9.3 µM (active)
same,IC50,[15],4.43 µM (active)
same,IC50,Beta Lactamase,49.8 µM (inactive)
same,EC50,HEK293 [16],> 59.7 µM (inactive)
same,EC50,HEK293 [17],> 59.7 µM (inactive)
c1ccc(-c2cc(-c3nnc4sc(-c5ccccn5)nn34)[nH]n2)cc1,IC50,H9c2,> 79 µM (inactive)
same,IC50,[18],165 µM (inactive)
Cc1ccc(NC(=O)CSc2ncccc2C(=O)Oc2cccc([N+](=O)[O-])c2)cc1Cl,IC50,Leucine aminopeptidase,32 µM (active)
same,IC50,[18],45.7 µM (inactive)
N#Cc1ccccc1CSc1nc2cc(Br)c[nH]c-2n1,IC50,[19],83.3 µM (inactive)
CC(C)[C@@]1(NC(=O)[C@@H]2C[C@@H]3c4cccc5[nH]cc(c45)C[C@H]3N(C)C2)O[C@@]2(O)[C@@H]3CCCN3C(=O)[C@H](Cc3ccccc3)N2C1=O [DIHYDROERGOCRISTINE MESYLATE],EC50,Mu-type opioid receptor,92.5 µM (inactive)
